Here are results for six molecules from patent US10899770B2, “Crystal form of ACP-196 salt and preparation method, pharmaceutical composition, and use thereof” (Hangzhou SoliPharma Co., Ltd., priority 2017, dated 2021).

Counter-ions that a name gives are not always drawn.

The nature of one series: Solubility test in water. It is filed as physicochemical. The following applies: for Solubility test results / solubility: 20 mg sample, water, 25° C. water bath, water added until completely dissolved (not more than 200 mL); for solubility compared with amorphous ACP-196 (ACP-196 of Preparation Example 1): in water, Comparative Example 1; for solubility: 25 °C, thermodynamic from solid. Here is the method:
Solubility test: took 20 mg ACP-196 of Preparation Example 1, 20 mg ACP-196 malate Form 1 of the invention, 20 mg ACP-196 hemifumarate Form 1 of the invention, 20 mg ACP-196 maleate Form 1 of the invention, 20 mg ACP-196 phosphate Form 1 of the invention and 20 mg ACP-196 sulfate Form 1 of the invention, then placed in the beaker respectively added 1.0 mL water, stirred for 1 to 2 minutes under the condition of 25° C. water bath, observed and if not totally dissolved, added water (not more than 200 mL in total) until it's completely dissolved.

Series [1] can be described thus: Isothermal sorption (dynamic vapor sorption), weight change with relative humidity. The format is physicochemical. Conditions: for weight change (isothermal sorption plot): between 30% and 80% relative humidity; for hygroscopicity compared with amorphous ACP-196: 30 to 80% RH. Here is the method:
Dynamic vapor sorption data and isothermal sorption data were collected on TA Instruments Q5000 TGA. Method: A sample of 1 to 10 mg was placed in a platinum pan; the weight change of the sample during the change in relative humidity from 0% to 80% to 0% was measured.

Regarding `CC#CC(=O)N1CCC[C@H]1c1nc(-c2ccc(C(=O)Nc3ccccn3)cc2)c2c(N)nccn12` [ACP-196], the Solubility test results in “Solubility test in water” is listed as “Less than 0.1 mg/mL”. Further, the “weight change (isothermal sorption plot)” value in series [1] and in series [1] (listed as amorphous ACP-196) was 5.5% throughout.

Take `CC#CC(=O)N1CCC[C@H]1c1nc(-c2ccc(C(=O)Nc3ccccn3)cc2)c2c(N)nccn12` [ACP-196 phosphate Form 1]: the “solubility compared with amorphous ACP-196 (ACP-196 of Preparation Example 1)” value in the series “Solubility test in water” is given as “higher solubility”. Also, the “hygroscopicity compared with amorphous ACP-196” value in series [1] is given as “less hygroscopic”.

In the case of `CC#CC(=O)N1CCC[C@H]1c1nc(-c2ccc(C(=O)Nc3ccccn3)cc2)c2c(N)nccn12.O=C(O)/C=C\C(=O)O` [ACP-196 maleate Form 1], in “Solubility test in water”, the “solubility compared with amorphous ACP-196 (ACP-196 of Preparation Example 1)” value was “higher solubility” and the solubility (as a rule, the dissolved amount per volume that the medium holds) came out at 1330 µg/mL. Further, the “hygroscopicity compared with amorphous ACP-196” value in series [1] is reported as “less hygroscopic”.

Take `CC#CC(=O)N1CCC[C@H]1c1nc(-c2ccc(C(=O)Nc3ccccn3)cc2)c2c(N)nccn12.O=C(O)/C=C/C(=O)O` [ACP-196 hemifumarate Form 1]: in “Solubility test in water”, the “solubility compared with amorphous ACP-196 (ACP-196 of Preparation Example 1)” value is “higher solubility” and the solubility amounted to 910 µg/mL. Also, the “hygroscopicity compared with amorphous ACP-196” value in series [1] was “less hygroscopic”.

As for `CC#CC(=O)N1CCC[C@H]1c1nc(-c2ccc(C(=O)Nc3ccccn3)cc2)c2c(N)nccn12` [ACP-196 malate Form 1], in the series “Solubility test in water”, the Solubility test results worked out at 1430 µg/mL and the “solubility compared with amorphous ACP-196 (ACP-196 of Preparation Example 1)” value is “higher solubility”.

For `CC#CC(=O)N1CCC[C@H]1c1nc(-c2ccc(C(=O)Nc3ccccn3)cc2)c2c(N)nccn12` [ACP-196 sulfate Form 1], the “solubility compared with amorphous ACP-196 (ACP-196 of Preparation Example 1)” value in the series “Solubility test in water” is “higher solubility”.
